Read-outs that look alike come from different tables or passages of the source.
What was measured:
[1] = Rat pharmacokinetic evaluation experiment; format: in vivo; conditions: plasma, male SD rats; for AUC: read-out: AUC (exposure)
Text: To determine the drug concentrations in plasma at different times after intravenous and intragastric administration of the test compounds to the rats by using the LC/MS/MS method and using male SD rats as the test animals; To study the pharmacokinetic behaviors of the test compounds in rats and to evaluate the pharmacokinetic characteristics thereof.
Experiment scheme: 10 healthy adult male SD rats were used as experimental animals and divided into 4 groups according to the principle of similar body weight, with 2 in each group of the group IV (two groups) and 3 in each group of the group PO (two groups). The animals were purchased from Beijing Vital River Laboratory Animal Technology Co., Ltd.
Group IV: an appropriate amount of samples were weighed; an appropriate amount of DMSO, PEG400 and water were added successively thereto according to the volume ratio of 10:60:30; and stirring was performed under sonication to reach a clear state of 1.5 mg/mL.
Group PO: an appropriate amount of samples were weighed; an appropriate amount of DMSO, PEG400 and water were added successively thereto according to the volume ratio of 10:60:30; and stirring was performed under sonication to reach a clear state of 1.0 mg/mL.
After fasting overnight, each rat in the group IV was administered intravenously with a volume of 2 mL/kg and a dose of 3 mg/kg; each rat in the group PO was administered intragastrically with a volume of 10 mL/kg and a dose of 10 mg/kg.
After each of the male SD rats in the group IV was administrated with the test compounds, 200 ul of blood samples were collected at 0.0833, 0.25, 0.5, 1, 2, 4, 6, 8 and 24 hours, and were placed in a commercial anticoagulation tube pre-loaded with EDTA-K2. After each rat in the group PO was administrated with the test compounds, 200 ul of blood samples were collected at 0.25, 0.5, 1, 2, 4, 6, 8 and 24 hours respectively, and were placed in a commercial anticoagulation tube pre-loaded with EDTA-K2. The test tube was centrifuged for 15 minutes to separate the plasma and stored at −60° C. 2 hours after administration, the animals can be fed. The content of the test compounds in plasma was determined by the LC/MS/MS method after intravenous and intragastric administration to the rats. The linear range of the method was from 2.00 to 6000 nM; plasma samples were analyzed after treatment of precipitating proteins by acetonitrile.
Note: Cl: clearance rate; Vd: volume of distribution; AUC: exposure; T1/2: half-life; Cmax: maximum compound concentration after oral administration; Tmax: time to reach Cmax; F: bioavailability.

[2] = test system: wild-type A375 human malignant melanoma cells; assay: Cell experiment: anti-proliferative activity, CellTiter-Glo, A375; format: cell-based; conditions: Homo sapiens, A-375, 120 h, 5 days culture
Procedure: This experiment is intended to verify that the compounds of the present invention have an inhibitory effect on the proliferation of NCI-H358 human non-small cell lung cancer cells with KRAS G12C mutation, MIA PaCa2 human pancreatic cancer cells with KRAS G12C mutation and wild-type A375 human malignant melanoma cells.
40 μl of phosphate buffer was added to the peripheral wells of three 384-well microplates respectively, and 40 μl of cell suspension to be tested was added to the other wells of each plate respectively (plate 1: NCI-H358 cell suspension containing 500 NCI-H358 cells; plate 2: MIAPaCa2 cell suspension containing 300 MIAPaCa2 cells; plate 3: A375 cell suspension containing 300 A375 cells). The three cell plates were then placed in a carbon dioxide incubator and incubated overnight. Echo was used to perform a 3-fold gradient dilution of the compounds to be tested, and each compound was diluted with 10 concentration gradients (diluted from 50 μM to 0.003 μM), 100 nl of which was respectively added to the corresponding wells of the cell plates; after dosing, 40 μL of phosphate buffer was added to each well of rows A and P and columns 1 and 24, and then the cell plates were put back to the carbon dioxide incubator for culturing for 5 days. 20 μl of Promega CellTiter-Glo reagent per well was added to the cell plates, which was shaken at room temperature for 10 minutes in the dark to stabilize the luminescence signal. A PerkinElmer Envision multi-label analyzer was used for reading.
Data analysis: IC50 results were analyzed by GraphPad Prism 5.0 software […].

- AUC ([1]; IV 3 mg/kg): 4.62 µM·h
- clearance ([1]; IV 3 mg/kg, read-out: Cl (clearance rate)): 20.6 mL/min/kg
- half-life ([1]; IV 3 mg/kg, read-out: T1/2 (half-life) (converted)): 56.4 min
- Vd ([1]; IV 3 mg/kg, read-out: Vd (volume of distribution)): 2.15 L/kg
- Cmax ([1]; PO 10 mg/kg): 2110 nM
- Tmax ([1]; PO 10 mg/kg): 1.67 h
- AUC ([1]; PO 10 mg/kg): 7.74 µM·h
- bioavailability ([1]; PO 10 mg/kg, read-out: F (bioavailability)): 52%
- IC50 [2]: 7.32 µM
SMILES: C=CC(=O)N1CCN(c2ncnc3c(=O)n(-c4c(N)c(Cl)cc(Cl)c4F)c(C(F)(F)F)cc23)CC1 [Example 49]
